From patent EP0462066A1, “Amorphous gemfibrozil” (WARNER-LAMBERT COMPANY, priority 1990, dated 1991)
In brackets after ≈: the same amount, converted by molar mass.

Assay: Dissolution / solubility in water over time, crystalline material compared with solid dispersion
Assay type: physicochemical

Question: For `Cc1ccc(C)c(OCCCC(C)(C)C(=O)O)c1` [Crystalline, 5-(2,5-dimethylphenoxy)-2,2-dimethylpentanoic acid], which solubility at 1 h (Time: One hour) is on record?
Answer: The solubility at 1 h was 14.7 µg/mL (≈ 58.8 µM).

Question: What about the solubility at 20 h (Time: Twenty Hours) of the same compound?
Answer: The solubility at 20 h was 21.3 µg/mL (≈ 85.1 µM).

Question: What about the solubility at 24 h (Time: Twenty-four Hours) of the same compound?
Answer: The solubility at 24 h was 22.4 µg/mL (≈ 89.5 µM).

Question: What about the solubility at 2 h (Time: Two Hours) of the same compound?
Answer: The solubility at 2 h was 18.4 µg/mL (≈ 73.6 µM).
